Positions of bridges follow the written chain, without caps; N, C: chain ends. Non-standard residues stand in square brackets, D forms with d. Residues, ends and D or L forms follow the SMILES beside them. Mpa = O=C(O)CCS
Experiments:
Rattus norvegicus [1] = organism: Rattus norvegicus; assay: Vasopressor activity in rat; assay type: organism-based; conditions: in vivo
[2] = Retardation factor of the compound in butan-1-ol-acetic acid-water (4:1:5 v/v) by TLC analysis; assay type: physicochemical; conditions: buffer
[3] = Oxytocic activity in rat uterus in presence of Mg2+; assay type: functional
[4] = Oxytocic activity in rat uterus in absence of Mg2+; assay type: functional
[5] = Retardation factor of the compound in butan-1-ol-water (1:1 v/v) by TLC analysis; assay type: physicochemical; conditions: buffer
Rattus norvegicus [6] = assay: Antidiuretic activity in iv dosed rat; assay type: functional, Urine
[7] = Retardation factor of the compound in ethyl acetate-pyridine-acetic acid-water (5:5:1:3 v/v) by TLC analysis; assay type: physicochemical; conditions: buffer
Rattus norvegicus [8] = organism: Rattus norvegicus; assay: Ratio of antidiuretic activity in rat to vasopressor activity in rat; design: species or system Urine
Rattus norvegicus [9] = organism: Rattus norvegicus; assay: Ratio of antidiuretic activity in Brattleboro rat to vasopressor activity in rat; design: species or system Urine
Rattus norvegicus [10] = assay: Antidiuretic activity in sc dosed Brattleboro rat assessed as spontaneous urine output measured every 1 hr for 24 hrs; assay type: functional

Activity (Rattus norvegicus [1]) [U/mg]	Rf [2]	Rf [5]	Rf [7]	SMILES	Activity [3] [U/mg]	Activity [4] [U/mg]	Activity (Rattus norvegicus [6]) [U/mg]	Ratio (Rattus norvegicus [8])	Ratio (Rattus norvegicus [9])	Activity (Rattus norvegicus [10]) [U/mg]
549	0.45	0.22	0.68	NC(=O)CC[C@@H]1NC(=O)[C@H](Cc2ccccc2)NC(=O)[C@H](Cc2ccc(O)cc2)NC(=O)[C@@H](O)CSSC[C@@H](C(=O)N2CCC[C@H]2C(=O)N[C@@H](CCCN=C(N)N)C(=O)NCC(N)=O)NC(=O)[C@H](CC(N)=O)NC1=O	96	31	467	0.9		
				N=C(N)NCCC[C@H](NC(=O)[C@@H]1CCCN1C(=O)[C@@H]1CSSCCC(=O)N[C@@H](Cc2ccc(O)cc2)C(=O)N[C@@H](Cc2ccccc2)C(=O)N[C@@H](CCC(N)=O)C(=O)N[C@@H](CC(N)=O)C(=O)N1)C(=O)NCC(N)=O [DESMOPRESSIN]	167	54				
< 0.01				CC(C)[C@@H]1NC(=O)[C@H](Cc2ccccc2)NC(=O)[C@H](Cc2ccc(O)cc2)NC(=O)CCSSC[C@@H](C(=O)N2CCC[C@H]2C(=O)N[C@H](CCCNC(=N)N)C(=O)NCC(N)=O)NC(=O)[C@H](CC(N)=O)NC1=O ([Mpa]YFVNCP[dR]G-NH2; disulfide 1-6)	2	8			>123000	1230
0.037				CC(C)[C@@H]1NC(=O)[C@H](Cc2ccccc2)NC(=O)[C@H](Cc2ccc(O)cc2)NC(=O)[C@@H](N)CSSC[C@@H](C(=O)N2CCC[C@H]2C(=O)N[C@H](CCCN=C(N)N)C(=O)NCC(N)=O)NC(=O)[C@H](CC(N)=O)NC1=O	0.9	0.6	653	17650		
0.86	0.45	0.22	0.68	NC(=O)CC[C@@H]1NC(=O)[C@H](Cc2ccccc2)NC(=O)[C@H](Cc2ccc(O)cc2)NC(=O)[C@@H](O)CSSC[C@@H](C(=O)N2CCC[C@H]2C(=O)N[C@H](CCCN=C(N)N)C(=O)NCC(N)=O)NC(=O)[C@H](CC(N)=O)NC1=O	2.6	4.3	886	1030		
< 0.02	0.68	0.48	0.85	CC(C)[C@@H]1NC(=O)[C@H](Cc2ccccc2)NC(=O)[C@H](Cc2ccc(O)cc2)NC(=O)[C@@H](O)CSSC[C@@H](C(=O)N2CCC[C@H]2C(=O)N[C@H](CCCN=C(N)N)C(=O)NCC(N)=O)NC(=O)[C@H](CC(N)=O)NC1=O	2.8	1.1	892	>45000		

SMILES	Activity (Rattus norvegicus [1]) [U/mg]	Rf [2]	Rf [5]	Rf [7]	Activity [3] [U/mg]	Activity [4] [U/mg]	Activity (Rattus norvegicus [6]) [U/mg]	Ratio (Rattus norvegicus [8])	Ratio (Rattus norvegicus [9])	Activity (Rattus norvegicus [10]) [U/mg]
NC(=O)CC[C@@H]1NC(=O)[C@H](Cc2ccccc2)NC(=O)[C@H](Cc2ccc(O)cc2)NC(=O)[C@@H](N)CSSC[C@@H](C(=O)N2CCC[C@H]2C(=O)N[C@@H](CCCN=C(N)N)C(=O)NCC(N)=O)NC(=O)[C@H](CC(N)=O)NC1=O [VASOPRESSIN]	382				57	16			0.9	330

Source: ChEMBL document CHEMBL3272351, “[1-(L-2-hydroxy-3-mercaptopropanoic acid)] analogues of arginine-vasopressin, [8-D-arginine]vasopressin, and [4-valine,8-D-arginine]vasopressin” (J Med Chem, 1977)
